# Source: patent publication US20230123334A1, “AMINO LIPID COMPOUND, PREPARATION METHOD THEREFOR, AND APPLICATION THEREOF” (SHENZHEN SHENXIN BIOTECHNOLOGY CO., LTD., priority 2020, published 2023)
# Tested on: HEK293 cells
# Assay: Preliminary screening as DNA vectors, GFP transfection of HEK293 cells
# Assay type: cell-based
# Conditions: amino lipid/DOPE liposome with 75 ng plasmid DNA (psin-EGFP-IRES-Puro); number of GFP-expressing cells divided by total nuclei (Hoechst)
# Method in brief: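 HEK293 cells in DMEM/10% FBS transfected with 75 ng EGFP plasmid per well complexed with amino lipid/DOPE liposomes in pH 5.6 sodium acetate. Hoechst nuclear stain added 20-24 h post-transfection, then cells cultured another 20-24 h. Confocal imaging gives GFP-positive cells as % of total nuclei.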
row,Structure (SMILES),Absolute DNA transfection efficiency in HEK293 cells [%]
1,CCCCCCCCCCCCNc1nc(NCCN2CCN(C)CC2)nc(SCCCCCCCCCCCC)n1 [S12N12 D5],3.5
2,CCCCCCCCCCCCNc1nc(NCCCN(C)C)nc(SCCCCCCCCCCCC)n1 [S12N12 D6],9.1
3,CCCCCCCCCCCCNc1nc(NCCN(CC)CC)nc(SCCCCCCCCCCCC)n1 [S12N12 D7],3.7
4,CCCCCCCCCCCCNc1nc(NCCCN2CCOCC2)nc(SCCCCCCCCCCCC)n1 [S12N12 D8],0.0
5,CCCCCCCCCCCCNc1nc(NCCCN2CCN(C)CC2)nc(SCCCCCCCCCCCC)n1 [S12N12 D9],5.1
6,CCCCCCCCCCCCNc1nc(NCC2CCN(C)CC2)nc(SCCCCCCCCCCCC)n1 [S12N12 D10],9.3
7,CCCCCCCCCCCCCNc1nc(NCCN(C)C)nc(SCCCCCCCCCCCC)n1 [S12N13 D1],1.4
8,CCCCCCCCCCCCCNc1nc(NCCN2CCOCC2)nc(SCCCCCCCCCCCC)n1 [S12N13 D2],0.0
9,CCCCCCCCCCCCCNc1nc(NCCN2CCCC2)nc(SCCCCCCCCCCCC)n1 [S12N13 D3],3.6
10,CCCCCCCCCCCCCNc1nc(NCCN2CCCCC2)nc(SCCCCCCCCCCCC)n1 [S12N13 D4],0.5
11,CCCCCCCCCCCCCNc1nc(NCCN2CCN(C)CC2)nc(SCCCCCCCCCCCC)n1 [S12N13 D5],1.5
12,CCCCCCCCCCCCCNc1nc(NCCCN(C)C)nc(SCCCCCCCCCCCC)n1 [S12N13 D6],7.0
13,CCCCCCCCCCCCCNc1nc(NCCN(CC)CC)nc(SCCCCCCCCCCCC)n1 [S12N13 D7],12.9
14,CCCCCCCCCCCCCNc1nc(NCCCN2CCOCC2)nc(SCCCCCCCCCCCC)n1 [S12N13 D8],0.0
15,CCCCCCCCCCCCCNc1nc(NCCCN2CCN(C)CC2)nc(SCCCCCCCCCCCC)n1 [S12N13 D9],2.1
16,CCCCCCCCCCCCCNc1nc(NCC2CCN(C)CC2)nc(SCCCCCCCCCCCC)n1 [S12N13 D10],2.4
17,CCCCCCCCCCCCCCCNc1nc(NCCN(C)C)nc(SCCCCCCCCCCCC)n1 [S12N15 D1],0.8
18,CCCCCCCCCCCCCCCNc1nc(NCCN2CCOCC2)nc(SCCCCCCCCCCCC)n1 [S12N15 D2],0.0
19,CCCCCCCCCCCCCCCNc1nc(NCCN2CCCC2)nc(SCCCCCCCCCCCC)n1 [S12N15 D3],2.0
20,CCCCCCCCCCCCCCCNc1nc(NCCN2CCCCC2)nc(SCCCCCCCCCCCC)n1 [S12N15 D4],1.0
21,CCCCCCCCCCCCCCCNc1nc(NCCN2CCN(C)CC2)nc(SCCCCCCCCCCCC)n1 [S12N15 D5],0.2

row,Structure (SMILES),Absolute DNA transfection efficiency in HEK293 cells [%]
1,CCCCCCCCCCCCCCCNc1nc(NCCCN(C)C)nc(SCCCCCCCCCCCC)n1 [S12N15 D6],0.9
2,CCCCCCCCCCCCCCCNc1nc(NCCN(CC)CC)nc(SCCCCCCCCCCCC)n1 [S12N15 D7],3.6
3,CCCCCCCCCCCCCCCNc1nc(NCCCN2CCOCC2)nc(SCCCCCCCCCCCC)n1 [S12N15 D8],0.0
4,CCCCCCCCCCCCCCCNc1nc(NCCCN2CCN(C)CC2)nc(SCCCCCCCCCCCC)n1 [S12N15 D9],0.2
5,CCCCCCCCCCCCCCCNc1nc(NCC2CCN(C)CC2)nc(SCCCCCCCCCCCC)n1 [S12N15 D10],4.0
6,CCCCCCCCCCCCCCCCNc1nc(NCCN(C)C)nc(SCCCCCCCCCCCC)n1 [S12N16 D1],0.5
7,CCCCCCCCCCCCCCCCNc1nc(NCCN2CCOCC2)nc(SCCCCCCCCCCCC)n1 [S12N16 D2],0.0
8,CCCCCCCCCCCCCCCCNc1nc(NCCN2CCCC2)nc(SCCCCCCCCCCCC)n1 [S12N16 D3],2.6
9,CCCCCCCCCCCCCCCCNc1nc(NCCN2CCCCC2)nc(SCCCCCCCCCCCC)n1 [S12N16 D4],0.7
10,CCCCCCCCCCCCCCCCNc1nc(NCCN2CCN(C)CC2)nc(SCCCCCCCCCCCC)n1 [S12N16 D5],0.7
11,CCCCCCCCCCCCCCCCNc1nc(NCCCN(C)C)nc(SCCCCCCCCCCCC)n1 [S12N16 D6],2.1
12,CCCCCCCCCCCCCCCCNc1nc(NCCN(CC)CC)nc(SCCCCCCCCCCCC)n1 [S12N16 D7],3.6
13,CCCCCCCCCCCCCCCCNc1nc(NCCCN2CCOCC2)nc(SCCCCCCCCCCCC)n1 [S12N16 D8],0.0
14,CCCCCCCCCCCCCCCCNc1nc(NCCCN2CCN(C)CC2)nc(SCCCCCCCCCCCC)n1 [S12N16 D9],0.4
15,CCCCCCCCCCCCCCCCNc1nc(NCC2CCN(C)CC2)nc(SCCCCCCCCCCCC)n1 [S12N16 D10],2.4
16,CCCCCCCCCCCCCCCCCCNc1nc(NCCN(C)C)nc(SCCCCCCCCCCCC)n1 [S12N18 D1],0.7
17,CCCCCCCCCCCCCCCCCCNc1nc(NCCN2CCOCC2)nc(SCCCCCCCCCCCC)n1 [S12N18 D2],0.0
18,CCCCCCCCCCCCCCCCCCNc1nc(NCCN2CCCC2)nc(SCCCCCCCCCCCC)n1 [S12N18 D3],3.9
19,CCCCCCCCCCCCCCCCCCNc1nc(NCCN2CCCCC2)nc(SCCCCCCCCCCCC)n1 [S12N18 D4],0.3
20,CCCCCCCCCCCCCCCCCCNc1nc(NCCN2CCN(C)CC2)nc(SCCCCCCCCCCCC)n1 [S12N18 D5],0.6
21,CCCCCCCCCCCCCCCCCCNc1nc(NCCCN(C)C)nc(SCCCCCCCCCCCC)n1 [S12N18 D6],0.6

row,Structure (SMILES),Absolute DNA transfection efficiency in HEK293 cells [%]
1,CCCCCCCCCCCCCCCCCCNc1nc(NCCN(CC)CC)nc(SCCCCCCCCCCCC)n1 [S12N18 D7],0.3
2,CCCCCCCCCCCCCCCCCCNc1nc(NCCCN2CCOCC2)nc(SCCCCCCCCCCCC)n1 [S12N18 D8],0.0
3,CCCCCCCCCCCCCCCCCCNc1nc(NCCCN2CCN(C)CC2)nc(SCCCCCCCCCCCC)n1 [S12N18 D9],0.2
4,CCCCCCCCCCCCCCCCCCNc1nc(NCC2CCN(C)CC2)nc(SCCCCCCCCCCCC)n1 [S12N18 D10],3.7
5,CCCCCCCCCCCCSc1nc(NCCN(C)C)nc(N(CCCCCCCCCCCC)CCCCCCCCCCCC)n1 [S12^2N12 D1],0.0
6,CCCCCCCCCCCCSc1nc(NCCN2CCOCC2)nc(N(CCCCCCCCCCCC)CCCCCCCCCCCC)n1 [S12^2N12 D2],0.0
7,CCCCCCCCCCCCSc1nc(NCCN2CCCC2)nc(N(CCCCCCCCCCCC)CCCCCCCCCCCC)n1 [S12^2N12 D3],0.0
8,CCCCCCCCCCCCSc1nc(NCCN2CCCCC2)nc(N(CCCCCCCCCCCC)CCCCCCCCCCCC)n1 [S12^2N12 D4],0.0
9,CCCCCCCCCCCCSc1nc(NCCN2CCN(C)CC2)nc(N(CCCCCCCCCCCC)CCCCCCCCCCCC)n1 [S12^2N12 D5],0.3
10,CCCCCCCCCCCCSc1nc(NCCCN(C)C)nc(N(CCCCCCCCCCCC)CCCCCCCCCCCC)n1 [S12^2N12 D6],0.3
11,CCCCCCCCCCCCSc1nc(NCCN(CC)CC)nc(N(CCCCCCCCCCCC)CCCCCCCCCCCC)n1 [S12^2N12 D7],0.1
12,CCCCCCCCCCCCSc1nc(NCCCN2CCOCC2)nc(N(CCCCCCCCCCCC)CCCCCCCCCCCC)n1 [S12^2N12 D8],0.0
13,CCCCCCCCCCCCSc1nc(NCCCN2CCN(C)CC2)nc(N(CCCCCCCCCCCC)CCCCCCCCCCCC)n1 [S12^2N12 D9],0.1
14,CCCCCCCCCCCCSc1nc(NCC2CCN(C)CC2)nc(N(CCCCCCCCCCCC)CCCCCCCCCCCC)n1 [S12^2N12 D10],0.1
15,CCCCCCCCCCCCCCSc1nc(NCCCCCC)nc(NCCN(C)C)n1 [S14N6 D1],24.1
16,CCCCCCCCCCCCCCSc1nc(NCCCCCC)nc(NCCN2CCOCC2)n1 [S14N6 D2],18.8
17,CCCCCCCCCCCCCCSc1nc(NCCCCCC)nc(NCCN2CCCC2)n1 [S14N6 D3],23.6
18,CCCCCCCCCCCCCCSc1nc(NCCCCCC)nc(NCCN2CCCCC2)n1 [S14N6 D4],2.5
19,CCCCCCCCCCCCCCSc1nc(NCCCCCC)nc(NCCN2CCN(C)CC2)n1 [S14N6 D5],21.7
20,CCCCCCCCCCCCCCSc1nc(NCCCCCC)nc(NCCCN(C)C)n1 [S14N6 D6],30.1
